Values quoted from earlier work, collected in US20090312281A1, “PROCESS FOR THE PREPARATION OF A PULVERULENT COMPOSITION AND PRODUCT AS OBTAINED” (INNOV'IA, priority 2006, published 2009).

| SMILES | Solubility in water at 60° C. (% weight/weight) |
| --- | --- |
| O=C(CO)[C@@H](O)[C@H](O)[C@H](O)CO [Fructose] | 89 % weight/weight |
| OC[C@H]1O[C@@](CO)(O[C@H]2O[C@H](CO)[C@@H](O)[C@H](O)[C@H]2O)[C@@H](O)[C@@H]1O [Sucrose] | 71 % weight/weight |
